From PMC10208570, “Peptidomimetic antibiotics disrupt the lipopolysaccharide transport bridge of drug-resistant Enterobacteriaceae” (Science Advances, 2023)
Like-named read-outs stand apart in the source and are kept apart here.

Key:
[1] = test system: Klebsiella pneumoniae NCTC 13443 LpxC, LpxD mutant; assay: microbe, parasite or virus in culture; conditions: Klebsiella pneumoniae, NCTC13443, read-out: MIC Klebsiella pneumoniae NCTC 13443 LpxC, LpxD (1x)
Procedure: (§1) MIC assays [Clinical and Laboratory Standards Institute (CLSI) methodology] and serial passage studies were performed as described by Luther et al. ([6]). […] Resistant mutants were isolated, and their MIC values were determined and sent to Microbes NG (Birmingham, United Kingdom) for whole-genome sequencing and bioinformatic analysis.

[2] = test system: Klebsiella pneumoniae ATCC 43816 LapB mutant; assay: microbe, parasite or virus in culture; conditions: Klebsiella pneumoniae, ATCC43816, read-out: MIC Klebsiella pneumoniae ATCC 43816 LapB (1x)
Procedure: as §1

[3] = test system: E. coli ATCC 25922 (parent / WT); assay: microbe, parasite or virus in culture; conditions: Escherichia coli
Procedure: as §1

[4] = test system: Klebsiella pneumoniae ATCC 43816 LptA I36N mutant; assay: microbe, parasite or virus in culture; conditions: Klebsiella pneumoniae, ATCC43816, read-out: MIC Klebsiella pneumoniae ATCC 43816 LptA I36N (1x)
Procedure: as §1

[5] = test system: Klebsiella pneumoniae NCTC 13443 LptA I36S mutant; assay: microbe, parasite or virus in culture; conditions: Klebsiella pneumoniae, NCTC13443, read-out: MIC Klebsiella pneumoniae NCTC 13443 LptA I36S (2x)
Procedure: as §1

[6] = test system: Klebsiella pneumoniae ATCC 43816 LptA I36S mutant; assay: microbe, parasite or virus in culture; conditions: Klebsiella pneumoniae, ATCC43816, read-out: MIC Klebsiella pneumoniae ATCC 43816 LptA I36S (1x)
Procedure: as §1

[7] = test system: Escherichia coli ATCC 25922 LptA E84D mutant; assay: microbe, parasite or virus in culture; conditions: Escherichia coli, ATCC25922, read-out: MIC Escherichia coli ATCC 25922 LptA E84D (1x)
Procedure: as §1

[8] = test system: Escherichia coli ATCC 25922 KdsD mutant; assay: microbe, parasite or virus in culture; conditions: Escherichia coli, ATCC25922, read-out: MIC Escherichia coli ATCC 25922 KdsD (2x)
Procedure: as §1

[9] = test system: K. pneumoniae ATCC 43816 (parent / WT); assay: microbe, parasite or virus in culture; conditions: Klebsiella pneumoniae
Procedure: as §1

[10] = test system: K. pneumoniae NCTC 13443 (NDM-1) (parent / WT); assay: microbe, parasite or virus in culture; conditions: Klebsiella pneumoniae
Procedure: as §1

[11] = test system: K. pneumoniae NCTC 13443 (NDM-1) LptA Q62L mutant; assay: microbe, parasite or virus in culture; conditions: Klebsiella pneumoniae, NCTC13443, read-out: MIC Klebsiella pneumoniae NCTC 13443 LptA Q62L (5x)
Procedure: as §1

[12] = test system: Klebsiella pneumoniae ATCC 43816 LptA L116Q mutant; assay: microbe, parasite or virus in culture; conditions: Klebsiella pneumoniae, ATCC43816, read-out: MIC Klebsiella pneumoniae ATCC 43816 LptA L116Q (1x)
Procedure: as §1

[13] = test system: K. pneumoniae ATCC 43816 LptA Q62L mutant; assay: microbe, parasite or virus in culture; conditions: Klebsiella pneumoniae, ATCC43816, read-out: MIC Klebsiella pneumoniae ATCC 43816 LptA Q62L (4x)
Procedure: as §1

[14] = test system: Klebsiella pneumoniae ATCC 43816 PglJ, PhnJ, ThiH mutant; assay: microbe, parasite or virus in culture; conditions: Klebsiella pneumoniae, ATCC43816, read-out: MIC Klebsiella pneumoniae ATCC 43816 PglJ, PhnJ, ThiH (1x)
Procedure: as §1

[15] = test system: E. coli ATCC 25922 LptA Q62L mutant; assay: microbe, parasite or virus in culture; conditions: Escherichia coli
Procedure: as §1

[16] = test system: Klebsiella pneumoniae NCTC 13443 YejM mutant; assay: microbe, parasite or virus in culture; conditions: Klebsiella pneumoniae, NCTC13443, read-out: MIC Klebsiella pneumoniae NCTC 13443 YejM (1x)
Procedure: as §1

[17] = test system: K. pneumoniae 968733 (CST-R); assay: MIC assay (CLSI); format: cell-based, Klebsiella pneumoniae; conditions: Klebsiella pneumoniae, read-out: MIC K. pneumoniae 968733 (CST-R) Parent
Procedure: as §1

[18] = ATCC25922, read-out: MIC Escherichia coli ATCC 25922 WT
[19] = ATCC43816, read-out: MIC Klebsiella pneumoniae ATCC 43816 WT
[20] = NCTC13443, read-out: MIC Klebsiella pneumoniae NCTC 13443 WT
[21] = ATCC25922, read-out: MIC Escherichia coli ATCC 25922 LptA Q62L (7x)

Measured: MIC

CO[C@@H]1[C@@H](OC(N)=O)[C@@H](O)[C@H](Oc2ccc3c(O)c(NC(=O)c4ccc(O)c(CC=C(C)C)c4)c(=O)oc3c2C)OC1(C)C [Novobiocin]
> 64 µg/mL: [1] | [3]; [18] | [4] | [5] | [6] | [7] | [9]; [19] | [10]; [20] | [11] | [12] | [13] | [16]
32 µg/mL: [2] | [14]
64 µg/mL: [8] | [15]; [21]

CN(C)c1cc(NC(=O)CNC(C)(C)C)c(O)c2c1C[C@H]1C[C@H]3[C@H](N(C)C)C(O)=C(C(N)=O)C(=O)[C@@]3(O)C(O)=C1C2=O [Tigecycline, reference compound]
0.25 µg/mL: [3]; ATCC25922, read-out: MIC E. coli ATCC 25922 Parent | [15]; ATCC25922, read-out: MIC E. coli ATCC 25922 Q62L mutant
0.5 µg/mL: [17] | [9]; ATCC43816, read-out: MIC K. pneumoniae ATCC 43816 Parent
2 µg/mL: [10]; NCTC13443, read-out: MIC K. pneumoniae NCTC 13443 (NDM-1) Parent

CN[C@H](CC(C)C)C(=O)N[C@H]1C(=O)N[C@@H](CC(N)=O)C(=O)N[C@H]2C(=O)N[C@H]3C(=O)N[C@H](C(=O)N[C@H](C(=O)O)c4cc(O)cc(O)c4-c4cc3ccc4O)[C@H](O)c3ccc(c(Cl)c3)Oc3cc2cc(c3O[C@@H]2O[C@H](CO)[C@@H](O)[C@H](O)[C@H]2O[C@H]2C[C@](C)(N)[C@H](O)[C@H](C)O2)Oc2ccc(cc2Cl)[C@H]1O [Vancomycin]
> 64 µg/mL: [1] | [2] | [3]; [18] | [4] | [5] | [6] | [7] | [8] | [9]; [19] | [10]; [20] | [11] | [12] | [13] | [14] | [15]; [21] | [16]
